Data taken from patent publication US11986450B2, “Methods and compositions for treating infection and inflammation with selenocyanate” (National Jewish Health, priority 2017, dated 2024).

Columns and labels:
[1] = test system: Pseudomonas aeruginosa (PA) lung infection
Experimental: FIGS. 8A-8C. […] Wild type (WT) and beta-subunit of the epithelial Na(+) channel (βENaC) Tg Mice were nebulized with 0.5% ^−SCN twice-daily starting 24 hrs post infection. Mice were sacrificed 72 hrs post infection and lung burden of PA was assessed (FIG. 8A), BAL neutrophil counts (FIG. 8B), and BALF KC cytokine (IL-8 analog) levels determined (FIG. 8C).
The inventors have shown critical in vivo proof of principle with inhaled ^−SCN in PA-infected mice (Chandler, J. D., et al. (2015); Chandler, J. D., et al. (2013) Nebulized thiocyanate improves lung infection outcomes in mice. Br J Pharmacol 169, 1166-1177). […] Mice that overexpress a sodium channel, βENaC, have been developed that spontaneously develop lung inflammation and mucous obstructions similar to that reported in subjects with CF (Mall, M., et al. (2004) Increased airway epithelial Na+ absorption produces cystic fibrosis-like lung disease in mice. Nat Med 10, 487-493). This model is useful to differentiate the antimicrobial effect of an agent from its potential anti-inflammatory effects.

[2] = test system: macrophage (J774A.1.) cells; conditions: 100 μM HOCl, 400 μM SCN, 15 minutes, viability after 6 hrs
Experimental: Cells were exposed to 100 μM HOCl and/or 400 μM ^−SCN in PBS for 15 minutes, washed and then placed in fresh media for 6 hrs before viability assessment with flow cytometry (FIG. 7A).

[3] = aerosolized isotonic 0.5% (w/v) solution in PBS for 30 minutes
Experimental: Mice (C57B6) were exposed to an aerosolized isotonic 0.5% (w/v) ^−SCN solution in PBS for 30 minutes (0 hr) and ^−SCN levels in the ELF and serum were determined by HPLC-EC at various time points.

[4] = test system: Human peripheral blood neutrophils activated with PMA; conditions: 20 ng/ml PMA, 200 μM thiocyanate
Experimental: Cytotoxicity was assessed by measuring lactate dehydrogenase (LDH) release.

[5] = test system: clinical isolate of M. abscessus; test: NTM killing, exposure to GOX, LPO, SeCN components; assay type: cell-based; conditions: plated on LB agar immediately after mixing
From the text: FIGS. 24A and 24B show —SeCN-mediated killing of NTM requires LPO, but not GOX, while LPO/—SeCn has no effect upon B. Cepacia. […] All conditions with GOX also contained dextrose, the required substrate of GOX for H2O2 production.
Susceptibility of NTM species to both HOSCN- and HOSeCN-mediated killing. […] Given the shorter amount of time necessary for —SeCN-mediated killing of NTM compared to other bacteria species (FIGS. 24A and 24B), the possibility that the mechanism responsible for —SeCN-mediated killing of NTM was unique compared to —SCN-mediated killing of NTM and —SeCN-mediated killing of other species is determined. […] Since killing required LPO, the inventors believe that endogenous H2O2 production by NTM provided the H2O2 required for the generation of HOSeCN via LPO and —SeCN.

[6] = nebulized 0.5%, twice daily, started 1 day after infection, 72 hours

N#CS [SCN, thiocyanate]
BAL neutrophil cell counts ([1]; mouse, in vivo): decreased | Lung CFU PA burden ([1]; mouse, in vivo): lower lung CFU PA burden | BAL levels of KC (IL-8 analog) [1, 6]: decreased | Body weight loss [1, 6]: less body weight loss | Lung pyocyanin levels [1, 6]: decreased lung pyocyanin levels | Protection from HOCl-mediated necrosis [2]: protects macrophage (J774A.1.) cells from HOCl-mediated necrosis | ELF SCN levels [3]: high ELF ^−SCN levels | Tolerability of inhaled SCN [3]: well tolerated | Cytoprotection in activated neutrophils [4]: cytoprotective | Killing of NTM with LPO, without GOX [5]: did not kill NTM
